The source of these data is patent publication US20140142113A1 (priority 2012, published 2014).

Structures are written as SMILES.

Data set [1] concerns collagen-induced arthritis. In words: Collagen induced arthritis (CIA) in mice. In kind it is in vivo. The note with it: DBA/1 mice, 30 mg/kg i.p. once daily. Here is the method: Control mice were treated with saline (circles). Data are the mean arthritis paw thickness, assessed using a calliper in the days following primary immunization and boost.
After the end of treatment, the inhibitory effect was maintained for a period of 2-3 days after which signs began to re-emerge.
Treatment of rheumatoid arthritis using Collagen Induced Arthritis as a model Collagen-induced arthritis studies. CIA in DBA/1 mice was induced by injecting DBA/1 mice with bovine type Il collagen (CII) emulsified in CFA1 followed by boosting 21 days later with CII emulsified in incomplete Freund's adjuvant (IFA). […] 30 mg/kg was delivered by i.p. injection once daily, starting following the development of clinical arthritis in treatment experiments. Animals were monitored daily following boost of arthritis, following the emergence of clear signs of disease observed on two consecutive days, animals were allocated randomly to treatment groups. Signs monitored included weight loss, paw thickness, and observed clinical score. Scoring is according to the presence of inflamed joints: 1 point for an inflamed digit, 1 point for a inflamed metatarsus, and 1 point for an inflamed joint above the metatarsus.

The target of the next data set is T1, hA3 adenosine receptor (Homo sapiens, UniProt P0DMS8).
T1 sequence (P0DMS8 1-318): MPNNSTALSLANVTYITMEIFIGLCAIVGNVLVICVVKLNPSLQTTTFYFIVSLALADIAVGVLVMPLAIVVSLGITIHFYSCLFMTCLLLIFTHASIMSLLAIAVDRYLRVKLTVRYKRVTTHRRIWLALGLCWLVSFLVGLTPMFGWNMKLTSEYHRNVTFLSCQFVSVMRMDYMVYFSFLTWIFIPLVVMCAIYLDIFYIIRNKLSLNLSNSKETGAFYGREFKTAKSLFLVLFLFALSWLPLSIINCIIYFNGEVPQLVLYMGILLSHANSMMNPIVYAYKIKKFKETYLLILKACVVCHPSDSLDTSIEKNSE
Nature of the data set: Adenosine receptor selectivity, hA3. In kind it is binding. Particulars: read-out: hA3 Ki ± SEM. An excerpt: (§1) The selectivity of these substances at various adenosine receptors is illustrated as follows: […]

A further data set concerns the target T2, hA2B adenosine receptor (Homo sapiens, UniProt P29275).
T2 sequence (P29275 1-332): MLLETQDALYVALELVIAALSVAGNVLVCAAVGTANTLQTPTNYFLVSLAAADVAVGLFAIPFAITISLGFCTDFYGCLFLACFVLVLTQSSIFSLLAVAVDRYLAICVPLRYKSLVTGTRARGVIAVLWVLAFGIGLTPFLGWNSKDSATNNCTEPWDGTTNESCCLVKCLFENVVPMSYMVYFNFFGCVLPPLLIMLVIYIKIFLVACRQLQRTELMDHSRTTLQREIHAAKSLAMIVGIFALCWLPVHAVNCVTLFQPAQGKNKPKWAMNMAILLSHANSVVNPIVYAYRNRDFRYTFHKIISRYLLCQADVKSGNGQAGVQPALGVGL
Nature of the data set: Adenosine receptor selectivity, hA2B. In kind it is binding. Particulars: read-out: hA2B IC50 ± SEM.
Source text: as §1

Data set [2] in a line: Pharmacokinetics of Compound 1 in mice, oral or intravenous. In kind it is in vivo. Particulars: C57BLK6 mice. Here is the method:
The cellulose formulation was administered to C57BLK6 mice orally. The serum suspension/solution was administered intravenously. […] The results are recorded in FIG. 5.

The subject of data set [3] is experimental autoimmune encephalomyelitis. In words: Experimental autoimmune encephalomyelitis (EAE) in mice. In kind it is in vivo. The note with it: C57B/6 mice, 15 mg/kg i.p. once daily from EAE induction. Here is the method: Control mice were treated with PEG/saline (triangles). […] Data are the mean plotted with the standard error of the mean.
EAE is a widely used animal model for multiple sclerosis (MS).
EAE was induced in C57B/6 mice by subcutaneous immunization with 100 ug/mouse myelin oligodendrocyte glycoprotein (MOG) peptide 35-55 emulsified in compete Freund's adjuvant (CFA) containing 2 mg/ml heat-killed mycobacterium tuberculosis H37Ra (Hooke Laboratories). As part of the induction protocol, mice were also injected intraperitoneally on the day of immunization and 48 hours later with 0.1 ml of 4 [mu]g/mL Bordetella pertusis toxin. Severity of EAE was determined daily based on a standard scoring system: 1, tail weakness or paralysis; 2, hind leg weakness; 3, hind limb paralysis; 4, forelimb weakness; and 5, moribund animals or death.

The target of a further data set is T3, rA1 adenosine receptor (Rattus norvegicus, UniProt P25099).
T3 sequence (P25099 1-326): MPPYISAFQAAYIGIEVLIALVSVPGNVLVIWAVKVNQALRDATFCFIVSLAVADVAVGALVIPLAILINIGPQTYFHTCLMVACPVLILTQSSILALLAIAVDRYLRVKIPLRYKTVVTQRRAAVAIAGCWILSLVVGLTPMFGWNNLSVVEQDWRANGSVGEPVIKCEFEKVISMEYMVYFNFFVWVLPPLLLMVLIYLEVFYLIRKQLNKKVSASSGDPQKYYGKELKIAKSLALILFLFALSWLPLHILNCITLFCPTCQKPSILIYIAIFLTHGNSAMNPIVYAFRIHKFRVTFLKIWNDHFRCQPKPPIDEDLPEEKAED
Nature of the data set: Adenosine receptor selectivity, rA1. In kind it is binding. The note with it: read-out: rA1 Ki ± SEM.
Source text: as §1

For the next data set, the target named is rA2A adenosine receptor (Rattus norvegicus, UniProt P30543). Nature of the data set: Adenosine receptor selectivity, rA2A. In kind it is binding. The note with it: read-out: rA2A Ki ± SEM.
Sequence of rA2A adenosine receptor (P30543 whole entry): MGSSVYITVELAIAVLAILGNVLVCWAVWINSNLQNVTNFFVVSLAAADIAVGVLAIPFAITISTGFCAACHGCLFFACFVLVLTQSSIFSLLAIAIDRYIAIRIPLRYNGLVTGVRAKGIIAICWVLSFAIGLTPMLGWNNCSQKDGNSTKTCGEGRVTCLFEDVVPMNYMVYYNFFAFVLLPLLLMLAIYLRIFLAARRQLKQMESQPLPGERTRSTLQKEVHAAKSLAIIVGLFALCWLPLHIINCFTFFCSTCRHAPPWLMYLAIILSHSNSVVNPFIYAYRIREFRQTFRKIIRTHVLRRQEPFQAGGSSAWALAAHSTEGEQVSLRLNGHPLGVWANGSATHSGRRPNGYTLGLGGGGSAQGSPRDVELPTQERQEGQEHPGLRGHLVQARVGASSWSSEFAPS
Source text: as §1

For `CCCn1c(=O)[nH]c2nc(-c3ccc(S(=O)(=O)N4CCN(c5ccc(Cl)cc5)CC4)cc3)[nH]c2c1=O` [Compound 1], in data set [1] (established arthritis), the “effect on existing inflammation in CIA” value was “able to reduce an existing inflammation to a normal state”. The “severity of CIA (paw swelling, erythema, joint rigidity; mean visual arthritis score)” value in data set [1] (started after development of clinical arthritis) was “significant reductions in the severity of CIA”. Also, the inhibitory constant (Ki) at hA3 adenosine receptor was above 10000 nM. The IC50 at hA2B adenosine receptor was determined as 1 ± 0.4 nM. The “detectability in blood by route” value in data set [2] (oral or intravenous route) is reported as “detectable only via injection”. Further, the oral availability entry in data set [2] (oral, 1% methyl cellulose in water, 0.2% Tween 80) is on record as “not orally available”. The half-life in data set [2] (whole blood, iv, i.v. application in mouse serum, read-out: terminal half life) lay within 1 to 2 h. Further, the “onset of EAE compared to control mice” value is “delayed onset such that there were no signs of EAE” in data set [3] (15 mg/kg) and “a delay in the onset of EAE” in data set [3] (listed as compound 1, 15 mg/kg).

Regarding `CCCn1c(=O)[nH]c2nc(-c3ccc(S(=O)(=O)N4CCN(Cc5ccc(C(F)(F)F)cc5)CC4)cc3)[nH]c2c1=O` [Compound 2], the inhibitory constant (Ki) amounted to 463 ± 122 nM on rA1 adenosine receptor and 1540 ± 271 nM at rA2A adenosine receptor. Further, at hA2B adenosine receptor, the IC50 came to 2 ± 1 nM.

With `CCn1c(=O)[nH]c2nc(-c3ccc(S(=O)(=O)N4CCN(Cc5cccc(C(F)(F)F)c5)CC4)cc3)[nH]c2c1=O` [Compound 3], the figures for the inhibition constant (Ki) on rA1 adenosine receptor and at rA2A adenosine receptor were 509 ± 155 nM and 499 ± 129 nM, respectively. For the same compound, the IC50 at hA2B adenosine receptor came out at 2 ± 1 nM.

On to `CCCn1c(=O)[nH]c2nc(-c3ccc(S(=O)(=O)N4CCN(Cc5cccc(Cl)c5)CC4)cc3)[nH]c2c1=O` [Compound 4], for which the Ki was determined as 178 ± 38 nM on rA1 adenosine receptor and 799 ± 358 nM at rA2A adenosine receptor. Further, at hA2B adenosine receptor, the concentration for half-maximal inhibition (IC50) worked out at 2 ± 0.1 nM.

As for `CCCn1c(=O)[nH]c2nc(-c3ccc(S(=O)(=O)N4CCN(Cc5cccc(F)c5)CC4)cc3)[nH]c2c1=O` [Compound 5], the Ki on rA1 adenosine receptor was found to be 111 ± 43 nM; on rA2A adenosine receptor it was 782 ± 236 nM. Moreover, on hA2B adenosine receptor, the IC50 stood at 3 ± 0.2 nM.

On to `CCn1c(=O)[nH]c2nc(-c3ccc(S(=O)(=O)N4CCN(Cc5ccc6c(c5)OCO6)CC4)cc3)[nH]c2c1=O` [Ethyl-/3,4-(Methylen-dioxy)benzyl-], for which the figures for the Ki at rA1 adenosine receptor, at hA3 adenosine receptor and on rA2A adenosine receptor were 54 ± 5 nM, below 10000 nM and 332 ± 129 nM, respectively. Besides, the IC50 at hA2B adenosine receptor was 5 ± 2 nM.

Turning to `CCn1c(=O)[nH]c2nc(-c3ccc(S(=O)(=O)N4CCN(c5ccccc5)CC4)cc3)[nH]c2c1=O` [Ethyl-/Phenyl-], the Ki was 142 ± 6 nM at rA1 adenosine receptor, above 10000 nM at hA3 adenosine receptor and 514 ± 41 nM on rA2A adenosine receptor. At hA2B adenosine receptor, the 50% inhibitory concentration (IC50) was determined as 4 ± 3 nM.

In the case of `CCn1c(=O)[nH]c2nc(-c3ccc(S(=O)(=O)N4CCN(Cc5ccc(OC)cc5)CC4)cc3)[nH]c2c1=O` [Ethyl-/p-Methoxybenzyl-], the Ki on rA1 adenosine receptor was 129 ± 41 nM; at hA3 adenosine receptor it was below 10000 nM; at rA2A adenosine receptor, 630 ± 305 nM. Besides, the half-maximal inhibitory concentration (IC50) on hA2B adenosine receptor is 5 ± 1 nM.

Consider `CCCn1c(=O)[nH]c2nc(-c3ccc(S(=O)(=O)N4CCN(CCc5ccccc5)CC4)cc3)[nH]c2c1=O` [Propyl-/2-(Phenyl)ethyl-], for which the Ki is below 10000 nM at hA3 adenosine receptor and 154 ± 44.9 nM on rA2A adenosine receptor. Also, the half-maximal inhibitory concentration (IC50) at hA2B adenosine receptor turned out to be 11 ± 3 nM.

As for `CCCn1c(=O)[nH]c2nc(-c3ccc(S(=O)(=O)N4CCN(Cc5ccc6c(c5)OCO6)CC4)cc3)[nH]c2c1=O` [Propyl-/3,4-(Methylen-dioxy)benzyl-], the inhibition constant (Ki) on rA1 adenosine receptor is 79 ± 5 nM; at hA3 adenosine receptor it was 4150 nM; at rA2A adenosine receptor, 590 ± 29 nM. Also, on hA2B adenosine receptor, the IC50 is 24 ± 10 nM.

For `CCCn1c(=O)[nH]c2nc(-c3ccc(S(=O)(=O)N4CCN(Cc5ccccc5)CC4)cc3)[nH]c2c1=O` [Propyl-/Benzyl-], the inhibitory constant (Ki) was 151 ± 38 nM on rA1 adenosine receptor, above 10000 nM at hA3 adenosine receptor and 848 ± 433 nM at rA2A adenosine receptor. Further, at hA2B adenosine receptor, the 50% inhibitory concentration (IC50) is 10 ± 2 nM.

Turning to `CCCn1c(=O)[nH]c2nc(-c3ccc(S(=O)(=O)N4CCN(Cc5cccc(C(F)(F)F)c5)CC4)cc3)[nH]c2c1=O` [Propyl-/m-Trifluormethylbenzyl-], the Ki at rA1 adenosine receptor turned out to be 273 ± 47 nM; on rA2A adenosine receptor, 1700 ± 217 nM. In addition, the IC50 on hA2B adenosine receptor came to 4 ± 0.2 nM.

Take `CCCn1c(=O)[nH]c2nc(-c3ccc(S(=O)(=O)N4CCN(Cc5ccc(Cl)cc5)CC4)cc3)[nH]c2c1=O` [Propyl-/p-Chlorbenzyl-]: the inhibition constant Ki on rA1 adenosine receptor was found to be 386 ± 98 nM; on rA2A adenosine receptor, 1730 ± 790 nM. On hA2B adenosine receptor, the concentration for half-maximal inhibition (IC50) came out at 4 ± 1 nM.

In the case of `CCCn1c(=O)[nH]c2nc(-c3ccc(S(=O)(=O)N4CCN(Cc5ccc(OC)cc5)CC4)cc3)[nH]c2c1=O` [Propyl-/p-Methoxybenzyl-], the Ki on rA1 adenosine receptor was 84 ± 19 nM; at rA2A adenosine receptor, 1020 ± 561 nM. Moreover, the IC50 at hA2B adenosine receptor is 16 ± 6 nM.
